In general, melting point refers to the temperature, or range, at which the solid turns liquid. As for `Cc1ncccc1Oc1ccc(NC(=O)Nc2ccc3[nH]c4c(c3c2)CCN(C(=O)OC(C)(C)C)CC4)cn1`, the melting point lay within 173 to 175 °C. Then `Cc1ncccc1Oc1ccc(NC(=O)Nc2ccc3[nH]c4c(c3c2)CCNCC4)cn1`, with 205 to 207 °C; and `Cc1ncccc1Oc1ccc(NC(=O)N2CCc3c(n(C)c4ccccc34)CC2)cn1`, with 159 to 160 °C. Turning to `Cc1ncccc1Oc1ccc(NC(=O)NCCc2ccccc2)cn1`, the melting point fell in the range of 136 to 138 °C.

Source of the values: patent US7291738B2 (dated 2007).
